Experimental data from PMC10945501, “Development and In Vivo Evaluation of Small-Molecule Ligands for Positron Emission Tomography of Immune Checkpoint Modulation Targeting Programmed Cell Death 1 Ligand 1” (Journal of Medicinal Chemistry, 2024).
Like-named read-outs stand apart in the source and are kept apart here.

Legend:
[1] = molecular target: T1, human PD-L1 (Homo sapiens, UniProt Q9NZQ7); assay: HTRF PD-1/PD-L1 binding assay (cell-free); settings: for fold reduction of affinity, pyrrole at R1 vs 1,4-benzodioxanyl analogue / fold decrease in affinity by methylation at R3*: IC50 ratio; for fold reduction of affinity, pyrrole at R1 vs 1,4-benzodioxanyl analogue: pairs 4c vs 4m, 4e vs 4n, 4f vs 4o, 5c vs 5f; for fold decrease in affinity by methylation at R3*: pairs 4c vs 5a, 4c vs 5b, 4e vs 5c, 4e vs 5d
T1 construct: purchased Cisbio Bioassays SAS, Codolet, France 64PD1PEG

[2] = Lipophilicity by HPLC method (μHPLC logD); settings: for μHPLC logD: pH 7.4; for chromatographic logD: pH 7.4, μHPLC logD
[3] = cell-free competitive PD-1/PD-L1 HTRF, mean ± SD, read-out: IC50 (hPD-L1 binding affinity, HTRF)
[4] = no full dose–response curves observed, values are relative IC50, read-out: relative IC50 (hPD-L1 binding affinity, HTRF)

T1 sequence (Q9NZQ7 19-238 limits assumed): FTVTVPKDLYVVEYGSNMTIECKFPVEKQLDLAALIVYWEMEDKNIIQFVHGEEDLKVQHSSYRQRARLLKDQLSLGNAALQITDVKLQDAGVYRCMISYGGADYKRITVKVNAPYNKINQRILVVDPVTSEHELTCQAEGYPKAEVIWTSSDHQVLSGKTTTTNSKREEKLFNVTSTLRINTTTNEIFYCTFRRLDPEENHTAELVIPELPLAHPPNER

Row | SMILES | IC50 [1, 3] [nM] | IC50 [1, 4] [nM] | μHPLC logD [2] | chromatographic logD [2] | fold reduction of affinity, pyrrole at R1 vs 1,4-benzodioxanyl analogue [1] [fold] | fold decrease in affinity by methylation at R3* [1] [fold]
1 | Cc1c(COc2cc(O)c(C=O)cc2Cl)cccc1-c1ccccc1 [Compound 2b, 5-Chloro-2-hydroxy-4-((2-methyl-[1,1′-biphenyl]-3-yl)methoxy)benzaldehyde] | > 100000 | – | – | – | – | –
2 | Cc1c(COc2cc(O)c(C=O)cc2Cl)cccc1-c1ccc2c(c1)OCCO2 [Compound 2c, 5-Chloro-4-((3-(2,3-dihydrobenzo[b][1,4]dioxin-6-yl)-2-methylbenzyl)oxy)-2-hydroxybenzaldehyde] | > 100000 | – | – | – | – | –
3 | Cc1c(COc2cc(OCc3cccc(C#N)c3)c(C=O)cc2Cl)cccc1-c1ccccc1 [Compound 3a, 3-((4-Chloro-2-formyl-5-((2-methyl-[1,1′-biphenyl]-3-yl)methoxy)phenoxy)methyl)benzonitrile] | – | 1300 | – | – | – | –
4 | Cc1c(COc2cc(OCc3ccnc(C#N)c3)c(C=O)cc2Cl)cccc1-c1ccc2c(c1)OCCO2 [Compound 3b, 4-((4-Chloro-5-((3-(2,3-dihydrobenzo[b][1,4]dioxin-6-yl)-2-methylbenzyl)oxy)-2-formylphenoxy)methyl)picolinonitrile] | – | 207 ± 340 | – | – | – | –
5 | Cc1c(COc2cc(OCc3cccc(C#N)c3)c(C=O)cc2Cl)cccc1-c1ccc2c(c1)OCCO2 [Compound 3c, 3-((4-Chloro-5-((3-(2,3-dihydrobenzo[b][1,4]dioxin-6-yl)-2-methylbenzyl)oxy)-2-formylphenoxy)methyl)benzonitrile] | > 5000 | – | – | – | – | –
6 | Cc1c(COc2cc(OCc3cocn3)c(C=O)cc2Cl)cccc1-c1ccc2c(c1)OCCO2 [Compound 3d, 5-Chloro-4-((3-(2,3-dihydrobenzo[b][1,4]dioxin-6-yl)-2-methylbenzyl)oxy)-2-(oxazol-4-ylmethoxy)benzaldehyde] | > 5000 | – | – | – | – | –
7 | Cc1c(COc2cc(OCc3ccnc(C#N)c3)c(C=O)cc2Cl)cccc1-n1cccc1 [Compound 3e, 4-((4-Chloro-2-formyl-5-((2-methyl-3-(1H-pyrrol-1-yl)benzyl)oxy)phenoxy)methyl)picolinonitrile] | > 5000 | – | – | – | – | –
8 | CC(=O)NCCNCc1cnc(OCc2cccc(-c3ccccc3)c2C)c(Cl)c1 [Compound 4a, N-(2-(((5-Chloro-6-((2-methyl-[1,1′-biphenyl]-3-yl)methoxy)pyridin-3-yl)methyl)amino)ethyl)acetamide] | > 50000 | – | 2.3 ± 0.1 | 2.33 ± 0.14 | – | –
9 | Cc1c(COc2cc(OCc3cccc(C#N)c3)c(CN[C@H](CO)C(=O)O)cc2Cl)cccc1-c1ccccc1 [Compound 4b, (5-Chloro-2-((3-cyanobenzyl)oxy)-4-((2-methyl-[1,1′-biphenyl]-3-yl)methoxy)benzyl)-D-serine] | 6.7 ± 0.4 | – | – | 3.46 ± 0.05 | – | –
10 | Cc1c(COc2cc(OCc3ccnc(C#N)c3)c(CN[C@H](CO)C(=O)O)cc2Cl)cccc1-c1ccc2c(c1)OCCO2 [Compound 4c, (5-Chloro-2-((2-cyanopyridin-4-yl)methoxy)-4-((3-(2,3-dihydrobenzo[b][1,4]dioxin-6-yl)-2-methylbenzyl)oxy)benzyl)-D-serine] | 6.1 ± 0.3 | – | – | 3.25 ± 0.03 | – | –
11 | CC(=O)NCCNCc1cc(Cl)c(OCc2cccc(-c3ccc4c(c3)OCCO4)c2C)cc1OCc1ccnc(C#N)c1 [Compound 4d, N-(2-((5-Chloro-2-((2-cyanopyridin-4-yl)methoxy)-4-((3-(2,3-dihydrobenzo [b][1,4]dioxin-6-yl)-2-methylbenzyl)oxy)benzyl)amino)ethyl)acetamide] | 9.2 ± 0.6 | – | 4.5 ± 0.2 | 4.45 ± 0.2 | – | –
12 | Cc1c(COc2cc(OCc3ccnc(C#N)c3)c(CNCCO)cc2Cl)cccc1-c1ccc2c(c1)OCCO2 [Compound 4e, 4-((4-Chloro-5-((3-(2,3-dihydrobenzo[b][1,4]dioxin-6-yl)-2-methylbenzyl)oxy)-2-(((2-hydroxyethyl)amino)methyl)phenoxy)methyl)picolinonitrile] | 7.7 ± 0.6 | – | 4.7 ± 0.2 | 4.71 ± 0.24 | – | –
13 | Cc1c(COc2cc(OCc3ccnc(C#N)c3)c(CN3CCCC[C@H]3C(=O)O)cc2Cl)cccc1-c1ccc2c(c1)OCCO2 [Compound 4f, (S)-1-(5-Chloro-2-((2-cyanopyridin-4-yl)methoxy)-4-((3-(2,3-dihydrobenzo [b][1,4]dioxin-6-yl)-2-methylbenzyl)oxy)benzyl)piperidine-2-carboxylic Acid] | 4.9 ± 0.3 | – | – | 3.64 ± 0.09 | – | –
14 | Cc1c(COc2cc(OCc3ccnc(C#N)c3)c(CNCCOCCOCCOCCOCCC(=O)O)cc2Cl)cccc1-c1ccc2c(c1)OCCO2 [Compound 4g, 1-(5-Chloro-2-((2-cyanopyridin-4-yl)methoxy)-4-((3-(2,3-dihydrobenzo [b][1,4]dioxin-6-yl)-2-methylbenzyl)oxy)phenyl)-5,8,11,14-tetraoxa-2-azaheptadecan-17-oic Acid] | 46 ± 5 | – | – | 3.42 ± 0.05 | – | –
15 | C#CCC[C@H](NCc1cc(Cl)c(OCc2cccc(-c3ccc4c(c3)OCCO4)c2C)cc1OCc1ccnc(C#N)c1)C(=O)O [Compound 4h, (S)-2-((5-Chloro-2-((2-cyanopyridin-4-yl)methoxy)-4-((3-(2,3-dihydrobenzo [b][1,4]dioxin-6-yl)-2-methylbenzyl)oxy)benzyl)amino)hex-5-ynoic Acid] | 8.2 ± 1.8 | – | – | 3.42 ± 0.05 | – | –
16 | C#CCOC(=O)NCCCC[C@H](NCc1cc(Cl)c(OCc2cccc(-c3ccc4c(c3)OCCO4)c2C)cc1OCc1ccnc(C#N)c1)C(=O)O [Compound 4i, N^2-(5-Chloro-2-((2-cyanopyridin-4-yl)methoxy)-4-((3-(2,3-dihydrobenzo[b][1,4]dioxin-6-yl)-2-methylbenzyl)oxy)benzyl)-N^6-((prop-2-yn-1-yloxy)carbonyl)-L-lysine] | 3.7 ± 0.5 | – | – | 3.47 ± 0.06 | – | –
17 | CC(=O)NCCNCc1cc(Cl)c(OCc2cccc(-c3ccc4c(c3)OCCO4)c2C)cc1OCc1cccc(C#N)c1 [Compound 4j, N-(2-((5-Chloro-2-((3-cyanobenzyl)oxy)-4-((3-(2,3-dihydrobenzo[b][1,4]dioxin-6-yl)-2-methylbenzyl)oxy)benzyl)amino)ethyl)acetamide] | 11 ± 1 | – | 4.7 ± 0.2 | 4.73 ± 0.24 | – | –
18 | CC(=O)NCCNCc1cc(Cl)c(OCc2cccc(-c3ccc4c(c3)OCCO4)c2C)cc1OCc1cocn1 [Compound 4k, N-(2-((5-Chloro-4-((3-(2,3-dihydrobenzo[b][1,4]dioxin-6-yl)-2-methylbenzyl)oxy)-2-(oxazol-4-ylmethoxy)benzyl)amino)ethyl)acetamide] | 50 ± 7 | – | 4.2 ± 0.2 | 4.21 ± 0.16 | – | –
19 | Cc1c(COc2cc(OCc3cocn3)c(CN3CCCC[C@H]3C(=O)O)cc2Cl)cccc1-c1ccc2c(c1)OCCO2 [Compound 4l, (S)-1-(5-Chloro-4-((3-(2,3-dihydrobenzo[b][1,4]dioxin-6-yl)-2-methylbenzyl)oxy)-2-(oxazol-4-ylmethoxy)benzyl)piperidine-2-carboxylic Acid] | 16 ± 3 | – | – | 3.39 ± 0.04 | – | –
20 | Cc1c(COc2cc(OCc3ccnc(C#N)c3)c(CN[C@H](CO)C(=O)O)cc2Cl)cccc1-n1cccc1 [Compound 4m, (5-Chloro-2-((2-cyanopyridin-4-yl)methoxy)-4-((2-methyl-3-(1H-pyrrol-1-yl)benzyl)oxy)benzyl)-D-serine] | 6 ± 1 | – | – | 2.83 ± 0.04 | 1.03 | –
21 | Cc1c(COc2cc(OCc3ccnc(C#N)c3)c(CNCCO)cc2Cl)cccc1-n1cccc1 [Compound 4n, 4-((4-Chloro-2-(((2-hydroxyethyl)amino)methyl)-5-((2-methyl-3-(1H-pyrrol-1-yl)benzyl)oxy)phenoxy)methyl)picolinonitrile] | 50 ± 3 | – | 4.3 ± 0.2 | 4.34 ± 0.18 | 6.40 | –
22 | Cc1c(COc2cc(OCc3ccnc(C#N)c3)c(CN3CCCC[C@H]3C(=O)O)cc2Cl)cccc1-n1cccc1 [Compound 4o, (S)-1-(5-Chloro-2-((2-cyanopyridin-4-yl)methoxy)-4-((2-methyl-3-(1H-pyrrol-1-yl)benzyl)oxy)benzyl)piperidine-2-carboxylic Acid] | 29 ± 3 | – | – | 3.14 ± 0.01 | 5.99 | –
23 | COC(=O)[C@@H](CO)NCc1cc(Cl)c(OCc2cccc(-c3ccc4c(c3)OCCO4)c2C)cc1OCc1ccnc(C#N)c1 [Compound 5b, Methyl (5-Chloro-2-((2-cyanopyridin-4-yl)methoxy)-4-((3-(2,3-dihydrobenzo[b][1,4]dioxin-6-yl)-2-methylbenzyl)oxy)benzyl)-D-serinate] | 30 ± 8 | – | 4.9 ± 0.3 | 4.88 ± 0.26 | – | 4.98
24 | COCCNCc1cc(Cl)c(OCc2cccc(-c3ccc4c(c3)OCCO4)c2C)cc1OCc1ccnc(C#N)c1 [Compound 5d, 4-((4-Chloro-5-((3-(2,3-dihydrobenzo[b][1,4]dioxin-6-yl)-2-methylbenzyl)oxy)-2-(((2-methoxyethyl)amino)methyl)phenoxy)methyl)picolinonitrile] | 19 ± 4 | – | 5.1 ± 0.3 | 5.09 ± 0.29 | – | 2.42
25 | CC(=O)N1CCN(Cc2cc(Cl)c(OCc3cccc(-c4ccc5c(c4)OCCO5)c3C)cc2OCc2cccc(C#N)c2)C1=O [Compound 5e, 3-((2-((3-Acetyl-2-oxoimidazolidin-1-yl)methyl)-4-chloro-5-((3-(2,3-dihydrobenzo[b][1,4]dioxin-6-yl)-2-methylbenzyl)oxy)phenoxy)methyl)benzonitrile] | 589 ± 178 | – | 5.6 ± 0.4 | 5.61 ± 0.37 | – | –
